Source: PubChem BioAssay (NCI)
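Dose response: 5 concentrations. Exposure: 48 h. Format: 96-well plates. Endpoint: linear interpolation; highest concentration if not reached. TGI denotes the concentration required for complete inhibition of growth.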

How the values were obtained:
Assay in all cases: NCI-60 cell line screen, 48 h
[1] = system: SK-OV-3 ovarian
[2] = system: M19-MEL melanoma
[3] = system: SK-MEL-5 melanoma
[4] = system: CAKI-1 renal
[5] = system: RXF-631 renal
[6] = system: RPMI-8226 leukemia
[7] = system: EKVX NSCLC
[8] = system: 786-0 renal
[9] = system: IGROV1 ovarian
[10] = system: LOX IMVI melanoma
[11] = system: SW-620 colon
[12] = system: OVCAR-5 ovarian
[13] = system: SNB-75 CNS
[14] = system: UACC-257 melanoma
[15] = system: HCC-2998 colon
[16] = system: SN12C renal
[17] = system: NCI-H226 lung
[18] = system: NCI-H23 lung
[19] = system: SK-MEL-2 melanoma
[20] = system: M14 melanoma
[21] = system: KM12 colon
[22] = system: OVCAR-4 ovarian
[23] = system: K-562 leukemia
[24] = system: SR leukemia
[25] = system: A498 renal
[26] = system: KM20L2 colon
[27] = system: SK-MEL-28 melanoma
[28] = system: SF-295 CNS
[29] = system: SNB-78 CNS
[30] = system: OVCAR-8 ovarian
[31] = system: HCT-116 colon
[32] = system: TK-10 renal
[33] = system: OVCAR-3 ovarian
[34] = system: LXFL 529 NSCLC
[35] = system: A549 NSCLC
[36] = system: HT29 colon
[37] = system: HOP-18 NSCLC
[38] = system: DMS 114 small cell lung
[39] = system: RXF 393 renal
[40] = system: NCI-H522 lung
[41] = system: HOP-62 NSCLC
[42] = system: HCT-15 colon
[43] = system: SF-268 CNS
[44] = system: U251 CNS
[45] = system: DMS 273 small cell lung
[46] = system: SF-539 CNS
[47] = system: HOP-92 NSCLC
[48] = system: MALME-3M melanoma
[49] = system: DLD-1 colon
[50] = system: SNB-19 CNS
[51] = system: XF 498 CNS
[52] = system: UO-31 renal
[53] = system: MOLT-4 leukemia
[54] = system: UACC-62 melanoma
[55] = system: NCI-H460 lung
[56] = system: HL-60(TB) leukemia
[57] = system: ACHN renal
[58] = system: CCRF-CEM leukemia
[59] = system: COLO 205 colon

Work on `NCCNC(=O)c1cccc2cc3ccccc3nc12` yielded a TGI [1] greater than 39 µM, a TGI [2] of 5.34 µM and a TGI [3] greater than 23.2 µM. The TGI [4] was greater than 23.4 µM, the TGI [5] was 16.7 µM and the TGI [6] was greater than 100 µM. For the same compound, the TGI [7] was 17.5 µM, the TGI [8] was greater than 68.4 µM and the TGI [9] was greater than 28.6 µM. For the same compound, the TGI [10] was 2.76 µM, the TGI [11] was greater than 34.1 µM and the TGI [12] was 14.6 µM. The TGI [13] was 27.7 µM, the TGI [14] was 8.81 µM and the TGI [15] was 21.2 µM. For the same compound, the TGI [16] was 20.8 µM, the TGI [17] was 3.61 µM and the TGI [18] was 10.6 µM. The TGI [19] was 7.81 µM, the TGI [20] was 11 µM and the TGI [21] was 20.4 µM. It also gave a TGI [22] of 15.2 µM, a TGI [23] of 6.16 µM and a TGI [24] of 53.8 µM. The TGI [25] was 5.88 µM, the TGI [26] was 12.5 µM and the TGI [27] was 9.71 µM. The TGI [28] was greater than 20.9 µM, the TGI [29] was 37 µM and the TGI [30] was greater than 22.2 µM. The TGI [31] was 8.06 µM, the TGI [32] was 21.2 µM and the TGI [33] was 15.4 µM. The TGI [34] was greater than 36.6 µM, the TGI [35] was greater than 100 µM and the TGI [36] was 6.5 µM. It also gave a TGI [37] greater than 40.9 µM, a TGI [38] of 6.66 µM and a TGI [39] of 10.2 µM. The TGI [40] was greater than 100 µM, the TGI [41] was 5.02 µM and the TGI [42] was 15 µM. The TGI [43] was 3.73 µM, the TGI [44] was 9.04 µM and the TGI [45] was greater than 100 µM. It also gave a TGI [46] of 16.9 µM, a TGI [47] greater than 100 µM and a TGI [48] of 3.29 µM. The TGI [49] was 18.6 µM, the TGI [50] was 19.1 µM and the TGI [51] was 6.04 µM. The TGI [52] was greater than 28.5 µM, the TGI [53] was 1.94 µM and the TGI [54] was 8.34 µM.
For `N#CC(C#N)=Cc1ccc(CP(=O)(O)O)cc1`, the TGI [1] was greater than 100 µM, the TGI [2] was greater than 100 µM and the TGI [3] was greater than 100 µM. The TGI [4] was greater than 100 µM, the TGI [5] was greater than 100 µM and the TGI [6] was greater than 100 µM. The TGI [7] was greater than 100 µM, the TGI [8] was greater than 100 µM and the TGI [9] was greater than 100 µM. For the same compound, the TGI [10] was greater than 100 µM, the TGI [11] was greater than 100 µM and the TGI [12] was greater than 100 µM. It also gave a TGI [14] greater than 100 µM, a TGI [15] greater than 100 µM and a TGI [16] greater than 100 µM. For the same compound, the TGI [17] was greater than 100 µM, the TGI [18] was greater than 100 µM and the TGI [19] was greater than 100 µM. The TGI [20] was greater than 100 µM, the TGI [21] was greater than 100 µM and the TGI [22] was greater than 100 µM. It also gave a TGI [23] greater than 100 µM, a TGI [25] greater than 100 µM and a TGI [26] greater than 100 µM. For the same compound, the TGI [27] was greater than 100 µM, the TGI [28] was greater than 100 µM and the TGI [29] was greater than 100 µM. The TGI [30] was greater than 100 µM, the TGI [31] was greater than 100 µM and the TGI [55] was greater than 100 µM. It also gave a TGI [56] greater than 100 µM, a TGI [32] greater than 100 µM and a TGI [33] greater than 100 µM. For the same compound, the TGI [34] was greater than 100 µM, the TGI [35] was greater than 100 µM and the TGI [36] was greater than 100 µM. For the same compound, the TGI [37] was greater than 100 µM, the TGI [38] was greater than 100 µM and the TGI [57] was greater than 100 µM. It also gave a TGI [40] greater than 100 µM, a TGI [41] greater than 100 µM and a TGI [42] greater than 100 µM. For the same compound, the TGI [43] was greater than 100 µM, the TGI [58] was greater than 100 µM and the TGI [44] was greater than 100 µM. For the same compound, the TGI [45] was greater than 100 µM, the TGI [46] was greater than 100 µM and the TGI [47] was greater than 100 µM. It also gave a TGI [48] greater than 100 µM, a TGI [59] greater than 100 µM and a TGI [49] greater than 100 µM. For the same compound, the TGI [50] was greater than 100 µM, the TGI [51] was greater than 100 µM and the TGI [52] was greater than 100 µM. The TGI [53] was greater than 100 µM and the TGI [54] was greater than 100 µM.
With `CC(C)(C)N/N=C(\C(=O)Nc1nc(=S)[nH][nH]1)C1C(=O)Nc2ccccc2S1=O` (stereo not drawn) the TGI [1] was greater than 100 µM, the TGI [2] was greater than 100 µM and the TGI [3] was greater than 100 µM. The TGI [4] was greater than 100 µM, the TGI [5] was greater than 100 µM and the TGI [6] was greater than 100 µM. The TGI [7] was greater than 100 µM, the TGI [8] was greater than 100 µM and the TGI [9] was greater than 100 µM. The TGI [10] was greater than 100 µM, the TGI [11] was greater than 100 µM and the TGI [12] was greater than 100 µM. It also gave a TGI [13] greater than 100 µM, a TGI [14] greater than 100 µM and a TGI [15] greater than 100 µM. It also gave a TGI [16] greater than 100 µM, a TGI [17] greater than 100 µM and a TGI [18] greater than 100 µM. The TGI [19] was greater than 100 µM, the TGI [20] was greater than 100 µM and the TGI [21] was greater than 100 µM. The TGI [22] was greater than 100 µM, the TGI [23] was greater than 100 µM and the TGI [24] was greater than 100 µM. The TGI [25] was greater than 100 µM, the TGI [26] was greater than 100 µM and the TGI [27] was greater than 100 µM. For the same compound, the TGI [28] was greater than 100 µM, the TGI [29] was greater than 100 µM and the TGI [30] was greater than 100 µM. It also gave a TGI [31] greater than 100 µM, a TGI [55] greater than 100 µM and a TGI [56] greater than 100 µM. The TGI [32] was greater than 100 µM, the TGI [33] was greater than 100 µM and the TGI [34] was greater than 100 µM. It also gave a TGI [35] greater than 100 µM, a TGI [36] greater than 100 µM and a TGI [37] greater than 100 µM. The TGI [38] was greater than 100 µM, the TGI [39] was greater than 100 µM and the TGI [57] was greater than 100 µM. It also gave a TGI [40] greater than 100 µM, a TGI [41] greater than 100 µM and a TGI [42] greater than 100 µM. It also gave a TGI [43] greater than 100 µM, a TGI [58] greater than 100 µM and a TGI [44] greater than 100 µM. It also gave a TGI [45] greater than 100 µM, a TGI [46] greater than 100 µM and a TGI [48] greater than 100 µM. It also gave a TGI [59] greater than 100 µM, a TGI [49] greater than 100 µM and a TGI [50] greater than 100 µM. The TGI [51] was greater than 100 µM, the TGI [52] was greater than 100 µM and the TGI [53] was greater than 100 µM. For the same compound, the TGI [54] was greater than 100 µM.
